The results in this text go back to patent US5624902A, “Peptide inhibitors of calmodulin” (Torrey Pines Institute for Molecular Studies, priority 1995, dated 1997).

Square brackets hold non-standard residues; d marks the D form. Peptide text beside a SMILES is read from it.

The assay addresses calmodulin (Homo sapiens, UniProt P0DP23). Briefly: calcium-dependent phosphodiesterase assay (inhibition of calmodulin activity). The class given is biochemical. As to conditions: for inhibition at 50 µM: inhibition of calmodulin activation of phosphodiesterase at 50 μM peptide, PDE without calmodulin = 100%, Calmo = 0%; for IC50: concentration inhibiting 50% of calmodulin activity, assayed at 75 μM, 50 μM and 12.5 μM.

Method: In this assay, calmodulin can be assayed by its ability to stimulate phosphodiesterase activity as determined by a two-step assay procedure illustrated by reactions (1) and (2).
During the first step of the assay cyclic adenosine 3'5'-monophosphate (cAMP) is incubated with calcium-activated phosphodiesterase (Cal-PDE), which hydrolyses the 3' bond producing adenosine 5'-monophosphate (5'-AMP). During the second step 5'-AMP is quantitatively converted into adenosine and inorganic phosphate (Pi) through the action of a 5'-nucleotidase. […] The amount of Pi formed is directly related to the phosphodiesterase activity which depends on the level of activation by calmodulin.
To sample assay tubes were added the following components: assay buffer, 25 μl; CaCl2, 5 μl; 5'-nucleotidase, 7.5 μl (stock solution is 10 units/ml); calmodulin 5 units; calmodulin inhibitor peptides to obtain the desired final concentration of 50 μM. The volume was then made up to 200 μl with water. Control blanks were prepared replacing the peptides with water. The added components were thoroughly mixed and the tubes incubated at 30° C. for 10 min. […] The samples were centrifuged to remove the protein precipitate and the 50 μl of the supernatant was withdrawn for phosphate measurement. […] The absorbance of the solution were read at 660 nm using water as a blank, identified as control "Calmo," as discussed in more detail below.
These three peptides commonly used in every assay as control of reproducibility of the assay.
In addition to the calcium-dependent phosphodiesterase assay data, IC50 values were determined for many of the peptides. The assay carried out for the determination in the IC50 values differed from the above screening assay by the concentration of the peptides being tested.
(2) W13: N-(4-aminobutyl)-5-chloro-2-naphtalenesulfonamide; (3) TFP: trifluoperazine; (4) Calmidasolium: (1-[bis-(4-chlorophenyl)methyl]-3[-2-(2,4-dichlorophenyl)-2[(2,4-dichlorophenyl)methoxy]-ethyl]-1H-imidazolium chloride. The IC50 values were calculated using sigmoidal curve software (Graphpad, ISI, San Diego) using the % inhibition at different mixture concentrations (see attached protocol for determination of % inhibition).

For the compound `CC[C@@H](C)[C@@H](NC(=O)[C@@H](CCC(N)=O)NC(=O)[C@@H](CC(C)C)NC(C)=O)C(=O)N[C@@H](C(=O)N[C@H](Cc1c[nH]cn1)C(=O)N[C@H](CCCNC(=N)N)C(N)=O)[C@H](C)CC` [Ac-(D)Leu-(D)Gln-(D)Ile-(D)Ile-(D)His-(D)Arg-NH2] (Ac-[dL][dQ][dI][dI][dH][dR]-NH2), the inhibition at 50 µM stood at 43.4%.
With `CC[C@H](C)[C@H](NC(=O)[C@H](Cc1ccccc1)NC(C)=O)C(=O)N[C@H](C(=O)N[C@@H](Cc1c[nH]c2ccccc12)C(=O)N[C@@H](Cc1ccccc1)C(=O)N[C@@H](CCC(=O)O)C(N)=O)[C@@H](C)CC` [Ctr 3, Ac-Phe-Ile-Ile-Trp-Phe-Glu-NH2, reference compound] (Ac-FIIWFE-NH2), the inhibition at 50 µM was 107%.
As for `CC[C@@H](C)[C@@H](NC(=O)[C@@H](CCC(N)=O)NC(=O)[C@@H](CC(C)C)NC(C)=O)C(=O)N[C@H](Cc1c[nH]cn1)C(=O)N[C@H](Cc1c[nH]cn1)C(=O)N[C@H](CCCNC(=N)N)C(N)=O` [Ac-(D)Leu-(D)Gln-(D)Ile-(D)His-(D)His-(D)Arg-NH2] (Ac-[dL][dQ][dI][dH][dH][dR]-NH2), the inhibition at 50 µM is 43.4%.
On to `CC(=O)N[C@H](CC(C)C)C(=O)N[C@H](Cc1c[nH]c2ccccc12)C(=O)N[C@H](CCCNC(=N)N)C(=O)N[C@H](Cc1c[nH]cn1)C(=O)N[C@H](CC(C)C)C(=O)N[C@H](CCCNC(=N)N)C(N)=O` [Ac-(D)Leu-(D)Trp-(D)Arg-(D)His-(D)Leu-(D)Arg--NH2] (Ac-[dL][dW][dR][dH][dL][dR]-NH2), for which the IC50 is more than 50 µM and the inhibition at 50 µM was 39.5%.
Regarding `CC[C@@H](C)[C@@H](NC(=O)[C@@H](Cc1c[nH]c2ccccc12)NC(=O)[C@@H](CC(C)C)NC(C)=O)C(=O)N[C@H](Cc1c[nH]cn1)C(=O)N[C@H](CC(C)C)C(=O)N[C@H](Cc1c[nH]c2ccccc12)C(N)=O` [Ac-(D)Leu-(D)Trp-(D)Ile-(D)His-(D)Leu-(D)Trp-NH2] (Ac-[dL][dW][dI][dH][dL][dW]-NH2), the inhibition at 50 µM is 103%.
On to `CC[C@@H](C)[C@@H](NC(=O)[C@@H](CCC(N)=O)NC(=O)[C@@H](CC(C)C)NC(C)=O)C(=O)N[C@@H](C(=O)N[C@H](Cc1c[nH]cn1)C(=O)N[C@H](Cc1c[nH]c2ccccc12)C(N)=O)[C@H](C)CC` [Ac-(D)Leu-(D)Gln-(D)Ile-(D)Ile-(D)His-(D)Trp-NH2] (Ac-[dL][dQ][dI][dI][dH][dW]-NH2), for which the inhibition at 50 µM came out at 35.5%.
For `CSCC[C@@H](NC(=O)[C@@H](Cc1c[nH]cn1)NC(=O)[C@@H](Cc1ccccc1)NC(=O)[C@@H](Cc1ccccc1)NC(C)=O)C(=O)N[C@H](CCSC)C(=O)N1CCC[C@@H]1C(N)=O` [Ctr 1, Ac-(D)Phe-(D)Phe-(D)His-(D)-Met-(D)Met-(D)Pro-NH2, reference compound] (Ac-[dF][dF][dH][dM][dM][dP]-NH2), the inhibition at 50 µM amounted to 36.8%.
With `NCCCCNS(=O)(=O)c1ccc2c(Cl)cccc2c1` [Peptide W13, N-(4-aminobutyl)-5-chloro-2-naphtalenesulfonamide, reference compound], the IC50 is less than 75 µM.
With `CC(=O)N[C@H](CC(C)C)C(=O)N[C@H](Cc1c[nH]c2ccccc12)C(=O)N[C@H](CCCNC(=N)N)C(=O)N[C@H](Cc1c[nH]cn1)C(=O)N[C@H](CC(C)C)C(=O)N[C@H](Cc1c[nH]c2ccccc12)C(N)=O` [Ac-(D)Leu-(D)Trp-(D)Arg-(D)His-(D)Leu-(D)Trp-NH2] (Ac-[dL][dW][dR][dH][dL][dW]-NH2), the IC50 was not above 10 µM and the inhibition at 50 µM turned out to be 90.8%.
For the compound `CSCC[C@@H](NC(=O)[C@@H](CCSC)NC(=O)[C@@H](Cc1ccccc1)NC(=O)[C@@H](Cc1c[nH]cn1)NC(=O)[C@@H](CC(=O)O)NC(C)=O)C(=O)N[C@H](C)C(N)=O` [Ctr 2, Ac-(D)Asp-(D)His-(D)Phe-(D)Met-(D)Met-(D)-Ala-NH2, reference compound] (Ac-[dD][dH][dF][dM][dM][dA]-NH2), the inhibition at 50 µM turned out to be 35.5%.
For the compound `CC[C@@H](C)[C@@H](NC(=O)[C@@H](CCC(N)=O)NC(=O)[C@@H](CC(C)C)NC(C)=O)C(=O)N[C@H](Cc1c[nH]cn1)C(=O)N[C@H](Cc1c[nH]cn1)C(=O)N[C@H](Cc1c[nH]c2ccccc12)C(N)=O` [Ac-(D)Leu-(D)Gln-(D)Ile-(D)His-(D)His-(D)Trp-NH2] (Ac-[dL][dQ][dI][dH][dH][dW]-NH2), the IC50 came to 76 µM and the inhibition at 50 µM was 60.5%.
